The results in this text go back to US20110306606A1, “NOVEL 2,6-SUBSTITUTED-3-NITROPYRIDINE DERIVATIVE, METHOD FOR PREPARING SAME, AND PHARMACEUTICAL COMPOSITION INCLUDING SAME” (priority 2008, published 2011).

Structures are written as SMILES.

This data set deals with Osteoblasts (Calvarial cells). The note with it: ICR, mouse, 72 h, 1 μM.
Consider `CNc1ccc([N+](=O)[O-])c(Nc2ccc(F)c(F)c2)n1` [Compound 122, 2-[(3,4-difluoro)phenylamino]-6-(methylamino)-3-nitropyridine], for which the “Cell viability (%) Calvarial cell” value is given as 121%. In the case of `Cc1ccc(Nc2nc(NC(C)C)ccc2[N+](=O)[O-])cc1` [Compound 2, 2-(4-methylphenylamino)-6-(isopropylamino)-3-nitropyridine], the “Cell viability (%) Calvarial cell” value worked out at 104%. `Nc1ccc(Nc2nc(NCCCn3ccnc3)ccc2[N+](=O)[O-])cc1` [Compound 67, 2-[4-(amino)phenylamino]-6-[(3-imidazol-1-yl)propylamino]-3-nitropyridine]: the “Cell viability (%) Calvarial cell” value worked out at 111%. In the case of `CC(C)(C)c1ccc(Nc2nc(NCc3ccncc3)ccc2[N+](=O)[O-])cc1` [Compound 38, 2-[4-(t-butyl)phenylamino]-6-[(4-pyridyl)methylamino]-3-nitropyridine], the “Cell viability (%) Calvarial cell” value is on record as 96%. Under `CC(C)c1nccn1-c1ccc([N+](=O)[O-])c(Nc2ccc(N3CCOCC3)cc2)n1` [Compound 114, 2-(4-morpholinophenylamino)-6-[(2-isopropyl)imidazol-1-yl]-3-nitropyridine] stands 92%. On to `O=[N+]([O-])c1ccc(N2CCOCC2)nc1Nc1ccc(F)c(F)c1` [Compound 129, 2-[(3,4-difluoro)phenylamino]-6-morpholino-3-nitropyridine], for which the “Cell viability (%) Calvarial cell” value is 88%. Under `CC(C)(C)Nc1ccc([N+](=O)[O-])c(Nc2cccc(N)c2)n1` [Compound 73, 2-[3-(amino)phenylamino]-6-(t-butylamino)-3-nitropyridine] stands 102%; under `CC(C)CNc1ccc([N+](=O)[O-])c(Nc2ccc(C#N)cc2)n1` [Compound 46, 2-(4-cyanophenylamino)-6-(isobutylamino)-3-nitropyridine], 100%. For `CC(C)(C)c1ccc(Nc2nc(N3CCC(O)CC3)ccc2[N+](=O)[O-])cc1` [Compound 34, 2-[4-(t-butyl)phenylamino]-6-(4-hydroxypiperidino)-3-nitropyridine], the “Cell viability (%) Calvarial cell” value came out at 97%. `O=[N+]([O-])c1ccc(NCc2ccncc2)nc1Nc1ccc(F)c(F)c1` [Compound 131, 2-[(3,4-difluoro)phenylamino]-6-[(4-pyridyl)methylamino]-3-nitropyridine]: the “Cell viability (%) Calvarial cell” value is on record as 100%. As for `COc1ccc(Nc2nc(N3CCC(O)CC3)ccc2[N+](=O)[O-])cc1` [Compound 19, 2-(4-methoxyphenylamino)-6-(4-hydroxypiperidino)-3-nitropyridine], the “Cell viability (%) Calvarial cell” value came out at 94%. Then `Cc1nccn1-c1ccc([N+](=O)[O-])c(Nc2cccc(N)c2)n1` [Compound 85, 2-[3-(amino)phenylamino]-6-[(2-methyl)imidazol-1-yl]-3-nitropyridine], with 101%; and `CC(C)(C)Nc1ccc([N+](=O)[O-])c(Nc2ccc(N3CCOCC3)cc2)n1` [Compound 117, 2-(4-morpholinophenylamino)-6-(t-butylamino)-3-nitropyridine], with 90%.

In the case of `CC(C)Nc1ccc([N+](=O)[O-])c(Nc2ccc(N3CCOCC3)cc2)n1` [Compound 109, 2-(4-morpholinophenylamino)-6-(isopropylamino)-3-nitropyridine], the “Cell viability (%) Calvarial cell” value was 101%. Take `CC(C)Nc1ccc([N+](=O)[O-])c(Nc2ccc(F)c(F)c2)n1` [Compound 123, 2-[(3,4-difluoro)phenylamino]-6-(isopropylamino)-3-nitropyridine]: the “Cell viability (%) Calvarial cell” value is 112%. With `COc1ccc(Nc2nc(N3CCNCC3)ccc2[N+](=O)[O-])cc1` [Compound 27, 2-(4-methoxyphenylamino)-6-(piperazin-1-yl)-3-nitropyridine], the “Cell viability (%) Calvarial cell” value amounted to 97%.

On to `CN1CCN(c2ccc([N+](=O)[O-])c(Nc3ccc(N)cc3)n2)CC1` [Compound 63, 2-[4-(amino)phenylamino]-6-(4-methylpiperazin-1-yl)-3-nitropyridine], for which the “Cell viability (%) Calvarial cell” value came to 104%. Consider `CN1CCN(c2ccc([N+](=O)[O-])c(Nc3ccc(C(C)(C)C)cc3)n2)CC1` [Compound 41, 2-[4-(t-butyl)phenylamino]-6-(4-methylpiperazin-1-yl)-3-nitropyridine], for which the “Cell viability (%) Calvarial cell” value came to 85%. Turning to `Nc1ccc(Nc2nc(N3CCNCC3)ccc2[N+](=O)[O-])cc1` [Compound 62, 2-[4-(amino)phenylamino]-6-(piperazin-1-yl)-3-nitropyridine], the “Cell viability (%) Calvarial cell” value is 103%. As for `Nc1cccc(Nc2nc(N3CCNCC3)ccc2[N+](=O)[O-])c1` [Compound 76, 2-[3-(amino)phenylamino]-6-(piperazin-1-yl)-3-nitropyridine], the “Cell viability (%) Calvarial cell” value was 102%. Under `O=[N+]([O-])c1ccc(NCc2ccncc2)nc1Nc1ccc(N2CCOCC2)cc1` [Compound 116, 2-(4-morpholinophenylamino)-6-[(4-pyridyl)methylamino]-3-nitropyridine] stands 89%; under `CC(C)c1nccn1-c1ccc([N+](=O)[O-])c(Nc2ccc(C(C)(C)C)cc2)n1` [Compound 36, 2-[4-(t-butyl)phenylamino]-6-[(2-isopropyl)imidazol-1-yl]-3-nitropyridine], 118%; under `CC(C)CNc1ccc([N+](=O)[O-])c(Nc2ccc(C(C)(C)C)cc2)n1` [Compound 32, 2-[4-(t-butyl)phenylamino]-6-(isobutylamino)-3-nitropyridine], 91%.

Turning to `CNc1ccc([N+](=O)[O-])c(Nc2ccc(C)cc2)n1` [Compound 1, 2-(4-methylphenylamino)-6-(methylamino)-3-nitropyridine], the “Cell viability (%) Calvarial cell” value came to 106%. Take `O=[N+]([O-])c1ccc(N2CCOCC2)nc1Nc1ccc(-c2csc(C3CCCCC3)n2)cc1` [Compound 160, 2-[4-(2-cyclohexylthiazol-4-yl)phenylamino]-6-morpholino-3-nitropyridine]: the “Cell viability (%) Calvarial cell” value was 105%. Under `CC(C)(C)c1ccc(Nc2nc(NCc3cccnc3)ccc2[N+](=O)[O-])cc1` [Compound 37, 2-[4-(t-butyl)phenylamino]-6-[(3-pyridyl)methylamino]-3-nitropyridine] stands 104%; under `CC(C)CNc1ccc([N+](=O)[O-])c(Nc2ccc(-n3ccnc3)cc2)n1` [Compound 88, 2-[4-(imidazol-1-yl)phenylamino]-6-(isobutylamino)-3-nitropyridine], 96%; under `Cc1ccc(Nc2nc(N3CCN(C)CC3)ccc2[N+](=O)[O-])cc1` [Compound 11, 2-(4-methylphenylamino)-6-(4-methylpiperazin-1-yl)-3-nitropyridine], 103%. For the compound `COc1ccc(Nc2nc(NC(C)(C)C)ccc2[N+](=O)[O-])cc1` [Compound 23, 2-(4-methoxyphenylamino)-6-(t-butylamino)-3-nitropyridine], the “Cell viability (%) Calvarial cell” value came to 90%. `CC(C)Nc1ccc([N+](=O)[O-])c(Nc2cccc(N)c2)n1` [Compound 71, 2-[3-(amino)phenylamino]-6-(isopropylamino)-3-nitropyridine]: the “Cell viability (%) Calvarial cell” value is 114%. Consider `CN1CCN(c2ccc([N+](=O)[O-])c(Nc3cccc(N)c3)n2)CC1` [Compound 77, 2-[3-(amino)phenylamino]-6-(4-methylpiperazin-1-yl)-3-nitropyridine], for which the “Cell viability (%) Calvarial cell” value worked out at 100%.

As for `O=[N+]([O-])c1ccc(N2CCC(O)CC2)nc1Nc1ccc(-c2csc(C3CCCCC3)n2)cc1` [Compound 155, 2-[4-(2-cyclohexylthiazol-4-yl)phenylamino]-6-(4-hydroxypiperidino)-3-nitropyridine], the “Cell viability (%) Calvarial cell” value was found to be 105%. Consider `CNc1ccc([N+](=O)[O-])c(Nc2ccc(OC)cc2)n1` [Compound 15, 2-(4-methoxyphenylamino)-6-(methylamino)-3-nitropyridine], for which the “Cell viability (%) Calvarial cell” value is given as 100%. As for `CC(C)CNc1ccc([N+](=O)[O-])c(Nc2cccc(N)c2)n1` [Compound 72, 2-[3-(amino)phenylamino]-6-(isobutylamino)-3-nitropyridine], the “Cell viability (%) Calvarial cell” value was 106%. For the compound `CNc1ccc([N+](=O)[O-])c(Nc2cccc(N)c2)n1` [Compound 70, 2-[3-(amino)phenylamino]-6-(methylamino)-3-nitropyridine], the “Cell viability (%) Calvarial cell” value stood at 105%. On to `COc1ccc(Nc2nc(N3CCOCC3)ccc2[N+](=O)[O-])cc1` [Compound 29, 2-(4-methoxyphenylamino)-6-morpholino-3-nitropyridine], for which the “Cell viability (%) Calvarial cell” value was 93%. `Nc1cccc(Nc2nc(N3CCOCC3)ccc2[N+](=O)[O-])c1` [Compound 78, 2-[3-(amino)phenylamino]-6-morpholino-3-nitropyridine]: the “Cell viability (%) Calvarial cell” value is 93%. Consider `O=[N+]([O-])c1ccc(NCCc2ccccn2)nc1Nc1ccc(-c2csc(C3CCCCC3)n2)cc1` [Compound 164, 2-[4-(2-cyclohexylthiazol-4-yl)phenylamino]-6-[2-(2-pyridyl)ethylamino]-3-nitropyridine], for which the “Cell viability (%) Calvarial cell” value is 104%.

`COc1ccc(Nc2nc(N3CCN(C)CC3)ccc2[N+](=O)[O-])cc1` [Compound 26, 2-(4-methoxyphenylamino)-6-(4-methylpiperazin-1-yl)-3-nitropyridine]: the “Cell viability (%) Calvarial cell” value was 90%. `Nc1cccc(Nc2nc(N3CCC(O)CC3)ccc2[N+](=O)[O-])c1` [Compound 74, 2-[3-(amino)phenylamino]-6-(4-hydroxypiperidino)-3-nitropyridine]: the “Cell viability (%) Calvarial cell” value stood at 93%.

As for `CC(=O)c1cccc(Nc2nc(NCC(C)C)ccc2[N+](=O)[O-])c1` [Compound 98, 2-(3-acetylphenylamino)-6-(isobutylamino)-3-nitropyridine], the “Cell viability (%) Calvarial cell” value was 92%. Regarding `CN1CCN(c2ccc([N+](=O)[O-])c(Nc3ccc(F)c(F)c3)n2)CC1` [Compound 128, 2-[(3,4-difluoro)phenylamino]-6-(4-methylpiperazin-1-yl)-3-nitropyridine], the “Cell viability (%) Calvarial cell” value was 87%.
